Assay results as given in patent US20230228744A1, “DRY EYE DISEASE BIOMARKERS AND THEIR USE FOR TREATMENT” (Aldeyra Therapeutics, Inc., priority 2020, published 2023).

Experiment: Exploratory aldehyde trapping studies in PBS and ACN/H2O (MS)
Format: biochemical
Details: 10 μM aldehyde, 1 mM trapping reagent, PBS or 50/50 ACN/H2O
Method: Semicarbazide (SCZ), glutathione (GSH), cysteine, and N-acetyl cysteine were used as trapping agents with the aldehydes 4-hydroxynonenal (4-HNE), malondialdehyde, acetaldehyde, hexanal, pentanal, and decanal. 10 μM of aldehyde was mixed with 1 mM of trapping reagent in either PBS or 50/50 ACN/H2O.

SMILES | trapping effectiveness, comparison of trapping agents | trapping of aldehydes as judged by MS
NNC(N)=O [semicarbazide, Semicarbazide] | more effective than GSH | appeared to trap aldehydes
N[C@@H](CCC(=O)N[C@@H](CS)C(=O)NCC(=O)O)C(=O)O [glutathione] | – | appeared to trap aldehydes
